Values after ≈ are worked out from the molar mass of the structure shown. Where two headings read alike, the source gives them in different places.
Tests used:
CCR5 = CCR5 (Homo sapiens (Human), UniProt P51681); experiment: Calcium flux inhibition experiment; assay type: cell-based; conditions: for IC50: HEK293/CCR5-Gα16 cell line, calcium flux, read-out: CCR5 IC50; for calcium influx inhibition effect in words, versus positive control compounds: conclusion from Table 1
CCR5 protein = experiment: Thermal stability of protein test (CPM-assay); assay type: binding; conditions: thermal stability of CCR5 protein with compound, CPM dye
From the text: Experimental theory: many cysteines are present in CCR5 protein sequence. Cysteines located in loop region form disulfide bonds to stabilize the tertiary structure of the protein. Some free cysteines in reduced state are located in the transmembrane region. Under excitation by incident light of 387 nm, the combination of free sulfhydryl and fluorescent dye CPM can emit excitation light of 436 nm. […] The free sulfhydryls originally located in the transmembrane region expose and combine with the fluorescent dye. And then the detector will detect changes in signal enhancement. Therefore, the thermal stability of membrane proteins can be determined according to the temperature (Tm) at the midpoint of changes in signal intensity.
Experimental steps: Upon preliminary purification, the obtained protein solution was transferred into a small concentration tube (100 kd, 500 ul) for concentration (1000 rcf, 12 min, 4° C.). After centrifugation, the concentration tube was taken out and flicked to prevent protein coagulation due to high local concentration. The final concentrated volume was about 50 μl. 117 μl of purified solution (volume is suitable to make the total volume up to 120 μl), 1 μl fluorescent dye cpm (in-house prepared) and 2 μl of concentrated protein solution (the amount of added protein is 3-5 μg according to the calculated concentration of the protein solution and the concentrated volume) were added to 2 ml Ependorf tube and incubated at room temperature for 20 min. And then the mixture was added to the cuvette (Qwan) and put in the testing equipment Cary, wherein the surface of the frosted glass faced out. The temperature was set in the range of 4-90° C. with 1° C. increase per minute and the program was run. Tm value can be obtained by processing the data and graph with a mapping software and can be used to compare the difference of protein thermal stability under different conditions.

[1] = Cytotoxicity (CC50) in TZM-bl cells; assay type: cell-based; conditions: human
HIV-1SF162 virus strain = experiment: Inhibition activity on TZM-bl cells infected with HIV-1SF162; conditions: for EC50: Human immunodeficiency virus 1, TZM-bl; for therapeutic index (TI): TZM-bl cells infected with HIV-1SF162
[2] = TZM-bl cells (Table 3), read-out: CC50

CCR5, sequence (P51681 whole entry): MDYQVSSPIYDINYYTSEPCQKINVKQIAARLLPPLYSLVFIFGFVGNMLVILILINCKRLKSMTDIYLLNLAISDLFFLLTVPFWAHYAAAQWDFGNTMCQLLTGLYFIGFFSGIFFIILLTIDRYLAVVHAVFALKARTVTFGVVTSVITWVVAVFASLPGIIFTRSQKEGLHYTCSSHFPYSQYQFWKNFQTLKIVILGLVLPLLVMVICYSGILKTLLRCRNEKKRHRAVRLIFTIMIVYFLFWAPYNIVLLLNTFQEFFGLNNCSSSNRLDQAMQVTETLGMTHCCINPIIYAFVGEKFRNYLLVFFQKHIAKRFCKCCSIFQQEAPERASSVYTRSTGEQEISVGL

In the case of `Cc1nnc(C(C)C)n1C1CCN(CCC(NC(=O)C2CCC(F)(F)CC2)c2cccs2)CC1` (centres unmarked) [Compound 1, 4,4-difluoro-N-[3-[4-(3-isopropyl-5-methyl-4H-1,2,4-triazol-4-yl)-piperidin-1-yl]-1-(thiophen-2-yl)propyl]cyclohexane-1-carboxamide], the IC50 (CCR5) is reported as 0.0366 µM, the “Tm (° C.)” value (CCR5 protein) is reported as 60.59 °C and the CC50 [1, 2] is reported as > 100 mg/L. For the same compound, the EC50 (HIV-1SF162 virus strain) was 0.29 mg/L (≈ 0.587 µM) and the “therapeutic index (TI)” value (HIV-1SF162 virus strain) was >340.14.
With `CC(=O)NC(CCN1CCC(n2c(C)nnc2C(C)C)CC1)c1cccs1` (centres unmarked) [Compound 2, N-[3-[4-(3-isopropyl-5-methyl-4H-1,2,4-triazol-4-yl)-piperidin-1-yl]-1-(thiophen-2-yl)propyl]acetamide] the IC50 (CCR5) was 0.0326 µM, the “Tm (° C.)” value (CCR5 protein) was 65.23 °C and the CC50 [1, 2] was > 100 mg/L. The EC50 (HIV-1SF162 virus strain) was 0.326 mg/L (≈ 0.837 µM) and the “therapeutic index (TI)” value (HIV-1SF162 virus strain) was >306.75.
In the case of `CC(=O)NC(CCN1C2CCC1CC(n1c(C)nnc1C(C)C)C2)c1cccs1` (stereo not drawn) [Compound 4, N-[3-[exo-3-(3-isopropyl-5-methyl-4H-1,2,4-triazol-4-yl)-8-azabicyclo[3.2.1]octane-8-yl]-1-(thiophen-2-yl)propyl]acetamide], the IC50 (CCR5) is reported as 0.015 µM, the “Tm (° C.)” value (CCR5 protein) is reported as 65.64 °C and the CC50 [1, 2] is reported as 42.8 mg/L (≈ 103 µM). The EC50 (HIV-1SF162 virus strain) was 1.46 mg/L (≈ 3.51 µM) and the “therapeutic index (TI)” value (HIV-1SF162 virus strain) was 29.29.
For `Cc1nnc(C(C)C)n1C1CCN(CC[C@H](NC(=O)C2CCC(F)(F)CC2)c2cccnc2)CC1` [Compound 5, 4,4-difluoro-N-[(1S)-3-[4-(3-isopropyl-5-methyl-4H-1,2,4-triazol-4-yl)-piperidin-1-yl]-1-(pyridin-3-yl)propyl]cyclohexane-1-carboxamide], the IC50 (CCR5) was 0.0297 µM and the “Tm (° C.)” value (CCR5 protein) was 57.31 °C.
For `Cc1nnc(C(C)C)n1C1CCN(CC[C@H](NC(=O)C2CCCCC2)c2cccnc2)CC1` [Compound 7, N-[(1S)-3-[4-(3-isopropyl-5-methyl-4H-1,2,4-triazol-4-yl)-piperidin-1-yl]-1-(pyridin-3-yl)propyl]cyclohexane-1-carboxamide], the IC50 (CCR5) was 0.0352 µM, the “Tm (° C.)” value (CCR5 protein) was 57.21 °C and the CC50 [1, 2] was > 100 mg/L. For the same compound, the EC50 (HIV-1SF162 virus strain) was 2.34 mg/L (≈ 5.17 µM) and the “therapeutic index (TI)” value (HIV-1SF162 virus strain) was 50.31.
With `Cc1nnc(C(C)C)n1C1CCN(CC[C@H](NC(=O)C2CCCC2)c2cccnc2)CC1` [Compound 9, N-[(1S)-3-[4-(3-isopropyl-5-methyl-4H-1,2,4-triazol-4-yl)-piperidin-1-yl]-1-(pyridin-3-yl)propyl]cyclopentane-1-carboxamide] the IC50 (CCR5) was 0.0793 µM, the “Tm (° C.)” value (CCR5 protein) was 61.32 °C and the CC50 [1, 2] was > 100 mg/L. The EC50 (HIV-1SF162 virus strain) was 1.81 mg/L (≈ 4.13 µM) and the “therapeutic index (TI)” value (HIV-1SF162 virus strain) was 55.42.
With `Cc1nnc(C(C)C)n1C1CC2CCC(C1)N2CC[C@H](NC(=O)C1CCCC1)c1cccnc1` (stereo partly drawn) [Compound 10, N-[(1S)-3-[exo-3-(3-isopropyl-5-methyl-4H-1,2,4-triazol-4-yl)-8-azabicyclo[3.2.1]octane-8-yl]-1-(pyridin-3-yl)propyl]cyclopentane-1-carboxamide] the IC50 (CCR5) was 0.0366 µM, the “Tm (° C.)” value (CCR5 protein) was 63.21 °C and the CC50 [1] was > 100 mg/L. The EC50 (HIV-1SF162 virus strain) was 1.42 mg/L (≈ 3.06 µM) and the “therapeutic index (TI)” value (HIV-1SF162 virus strain) was >70.42.
With `Cc1nnc(C(C)C)n1C1CC2CCC(C1)N2CC[C@H](NC(=O)C1CCCCC1)c1ccsc1` (some centres unmarked) [Compound 24] the IC50 (CCR5) was 0.0446 µM and the “Tm (° C.)” value (CCR5 protein) was 62.31 °C.
For `CCC(=O)N1CCc2c(nc(C)n2C2CC3CCC(C2)N3CC[C@H](NC(C)=O)c2ccc(Cl)s2)C1` (stereo partly drawn) [Compound 127, N-{(1S)-3-[(3-endo)-3-(5-propionyl-2-methyl-4,5,6,7-tetrahydro-1H-imidazo[4,5-c]pyridin-1-yl)-8-azabicyclo[3.2.1]octane-8-yl]-1-(5-chlorothiophen-2-yl)-propyl}acetamide], the IC50 (CCR5) was 0.0229 µM, the CC50 [1, 2] was > 200 mg/L and the EC50 (HIV-1SF162 virus strain) was 0.145 mg/L (≈ 0.28 µM). The “therapeutic index (TI)” value (HIV-1SF162 virus strain) was >1379.94.
For `CCCC(=O)N1CCc2c(nc(C)n2C2CC3CCC(C2)N3CC[C@H](NC(C)=O)c2ccc(Cl)s2)C1` (stereo partly drawn) [Compound 128, N-{(1S)-3-[(3-endo)-3-(5-n-butyryl-2-methyl-4,5,6,7-tetrahydro-1H-imidazo[4,5-c]pyridin-1-yl)-8-azabicyclo[3.2.1]octane-8-yl]-1-(5-chlorothiophen-2-yl)-propyl}acetamide], the IC50 (CCR5) was 0.0175 µM, the CC50 [1] was > 200 mg/L and the EC50 (HIV-1SF162 virus strain) was 0.174 mg/L (≈ 0.327 µM). The “therapeutic index (TI)” value (HIV-1SF162 virus strain) was >1150.82.
With `CC(=O)N[C@@H](CCN1C2CCC1CC(n1c(C)nc3c1CCN(C(=O)C(C)C)C3)C2)c1ccc(Cl)s1` (stereo partly drawn) [Compound 129, N-{(1S)-3-[(3-endo)-3-(5-isobutyryl-2-methyl-4,5,6,7-tetrahydro-1H-imidazo[4,5-c]pyridin-1-yl)-8-azabicyclo[3.2.1]octane-8-yl]-1-(5-chlorothiophen-2-yl)-propyl}acetamide] the IC50 (CCR5) was 0.0142 µM, the CC50 [1] was > 200 mg/L and the EC50 (HIV-1SF162 virus strain) was 0.072 mg/L (≈ 0.135 µM). The “therapeutic index (TI)” value (HIV-1SF162 virus strain) was >1526.72.
For `CC(=O)N[C@@H](CCN1C2CCC1CC(n1c(C)nc3c1CCN(C(=O)C1CC1)C3)C2)c1ccc(Cl)s1` (stereo partly drawn) [Compound 130, N-{(1S)-3-[(3-endo)-3-(5-cyclopropionyl-2-methyl-4,5,6,7-tetrahydro-1H-imidazo[4,5-c]pyridin-1-yl)-8-azabicyclo[3.2.1]octane-8-yl]-1-(5-chlorothiophen-2-yl)-propyl}acetamide], the IC50 (CCR5) was 0.0185 µM, the CC50 [1] was > 200 mg/L and the EC50 (HIV-1SF162 virus strain) was 0.053 mg/L (≈ 0.1 µM). The “therapeutic index (TI)” value (HIV-1SF162 virus strain) was >2562.98.
With `CC(=O)N[C@@H](CCN1C2CCC1CC(n1c(C)nc3c1CCN(C(C)=O)C3)C2)c1ccc(F)s1` (stereo partly drawn) [Compound 131, N-{(1S)-3-[(3-endo)-3-(5-acetyl-2-methyl-4,5,6,7-tetrahydro-1H-imidazo[4,5-c]pyridin-1-yl)-8-azabicyclo[3.2.1]octane-8-yl]-1-(5-fluorothiophen-2-yl)-propyl}acetamide] the IC50 (CCR5) was 0.00657 µM, the “calcium influx inhibition effect in words, versus positive control compounds” value (CCR5) was “better than the positive control compounds” and the CC50 [1, 2] was > 200 mg/L. The EC50 (HIV-1SF162 virus strain) was 0.098 mg/L (≈ 0.201 µM) and the “therapeutic index (TI)” value (HIV-1SF162 virus strain) was >1302.27.
In the case of `CC(=O)N[C@@H](CCN1C2CCC1CC(n1c(C)nc3c1CCN(C(=O)C1CC1)C3)C2)c1ccc(F)s1` (stereo partly drawn) [Compound 132, N-{(1S)-3-[(3-endo)-3-(5-cyclopropionyl-2-methyl-4,5,6,7-tetrahydro-1H-imidazo[4,5-c]pyridin-1-yl)-8-azabicyclo[3.2.1]octane-8-yl]-1-(5-fluorothiophen-2-yl)-propyl}acetamide], the IC50 (CCR5) is reported as 0.0222 µM, the CC50 [1, 2] is reported as > 200 mg/L and the EC50 (HIV-1SF162 virus strain) is reported as 0.097 mg/L (≈ 0.189 µM). For the same compound, the “therapeutic index (TI)” value (HIV-1SF162 virus strain) was >2063.25.
With `COC(=O)N1CCc2c(nc(C)n2C2CC3CCC(C2)N3CC[C@H](NC(C)=O)c2ccc(F)s2)C1` (stereo partly drawn) [Compound 133, Methyl 1-{(endo)-8-[(S)-3-acetamido-3-(5-fluorothiophen-2-yl)-propyl]-8-azabicyclo[3.2.1]octan-3-yl}-2-methyl-1,4,6,7-tetrahydro-5H-imidazo[4,5-c]pyridine-5-carboxylate] the IC50 (CCR5) was 0.00178 µM, the “calcium influx inhibition effect in words, versus positive control compounds” value (CCR5) was “better than the positive control compounds” and the CC50 [1] was > 200 mg/L. The EC50 (HIV-1SF162 virus strain) was 0.152 mg/L (≈ 0.302 µM) and the “therapeutic index (TI)” value (HIV-1SF162 virus strain) was >1313.56.
In the case of `CCC(=O)N1CCc2c(nc(C)n2C2CC3CCC(C2)N3CC[C@H](NC(C)=O)c2ccc(F)s2)C1` (stereo partly drawn) [Compound 134, N-{(1S)-3-[(3-endo)-3-(5-propionyl-2-methyl-4,5,6,7-tetrahydro-1H-imidazo[4,5-c]pyridin-1-yl)-8-azabicyclo[3.2.1]octane-8-yl]-1-(5-fluorothiophen-2-yl)-propyl}acetamide], the IC50 (CCR5) is reported as 0.0221 µM, the CC50 [1] is reported as > 200 mg/L and the EC50 (HIV-1SF162 virus strain) is reported as 0.113 mg/L (≈ 0.225 µM). For the same compound, the “therapeutic index (TI)” value (HIV-1SF162 virus strain) was >1772.41.
In the case of `CC(=O)N[C@@H](CCN1C2CCC1CC(n1c(C)nc3c1CCN(C(=O)C(C)C)C3)C2)c1ccc(F)s1` (stereo partly drawn) [Compound 135, N-{(1S)-3-[(3-endo)-3-(5-isobutyryl-2-methyl-4,5,6,7-tetrahydro-1H-imidazo[4,5-c]pyridin-1-yl)-8-azabicyclo[3.2.1]octane-8-yl]-1-(5-fluorothiophen-2-yl)-propyl}acetamide], the IC50 (CCR5) is reported as 0.00828 µM, the “calcium influx inhibition effect in words, versus positive control compounds” value (CCR5) is reported as “comparable to the positive control compounds” and the CC50 [1] is reported as > 200 mg/L. For the same compound, the EC50 (HIV-1SF162 virus strain) was 0.155 mg/L (≈ 0.301 µM) and the “therapeutic index (TI)” value (HIV-1SF162 virus strain) was >1222.11.
With `CCCC(=O)N1CCc2c(nc(C)n2C2CC3CCC(C2)N3CC[C@H](NC(C)=O)c2ccc(F)s2)C1` (stereo partly drawn) [Compound 136, N-{(1S)-3-[(3-endo)-3-(5-n-butyryl-2-methyl-4,5,6,7-tetrahydro-1H-imidazo[4,5-c]pyridin-1-yl)-8-azabicyclo[3.2.1]octane-8-yl]-1-(5-fluorothiophen-2-yl)-propyl}acetamide] the IC50 (CCR5) was 0.0221 µM, the CC50 [1, 2] was > 200 mg/L and the EC50 (HIV-1SF162 virus strain) was 0.011 mg/L (≈ 0.0213 µM). For the same compound, the “therapeutic index (TI)” value (HIV-1SF162 virus strain) was >4834.51.
